Source: patent US5084441A, “Acetylated low density lipoproteins: a delivery system to phagocytic cells for stimulating immunologic response and host resistance” (priority 1988, dated 1992)

What was measured:
[1] = system: thioglycolate-elicited macrophages; assay: Fluorescent binding and uptake of acetyl-LDL:MTP-PE-DiI by macrophages; format: cell-based, mouse; conditions: 30-fold excess of competitor; 30 μg acetyl-LDL:MTP-PE-DiI; 37°
Method: The binding and uptake of acetyl-LDL:MTP-PE-DiI was carried out at 37 degrees centigrade and the fluorescence intensity of cell-associated DiI recorded. The μg acetyl-LDL:MTP-PE-DiI bound was determined by knowing the quantity of DiI associated with the complex (1.34±0.76 nmol DiI/mg acetyl-LDL protein). The data points represent an average of three separate experiments.
Insert: Uptake of 30 μg of acetyl-LDL:MTP-PE-DiI and in the presence of a 30-fold excess of acetyl-LDL (a) a 30-fold excess of LDL (b) or a 30-fold excess of liposomes (c).

[2] = system: P815 mastocytoma target cells; assay: Macrophage-mediated cytotoxicity ([3H]thymidine release) after treating thioglycolate-elicited macrophages
Method: Macrophage-mediated cytotoxicity: Cytotoxicity was determined using a [3H] thymidine release assay. Thioglycolate-elicited macrophages were plated in 96-well flat-bottom tissue culture plates (Costar, Cambridge, Mass.) at 4×10^5 and 1×10^4 macrophage per well. […] After 24 hours, the plates were washed three times and [3H] thymidine labelled P815 tumor target cells (1×10^4) were added to each well. The total assay volume was 250 μl in DMEM with 10% FCS and the plates were incubated an additional 24 hours. After incubation, the microplates were centrifuged for 2 minutes at 250×g and a 125 μl aliquot of supernatant was removed and counted by liquid […]. Total incorporation of radioactivity was determined by adding 1×10^4 cells to 2 ml of Beckman Redissolve scintillation cocktail.
The percent specific release was calculated. [formula]
All samples were plated in triplicate and the data presented as the mean ±S.D. of triplicates.

[3] = system: thioglycolate-elicited macrophages, thymocytes and X63-Ag8.653 myeloma cells; assay: Cell specificity of [125I]acetyl-LDL binding; parameters: species or system mouse
Method: Thiglycolate-elicited macrophages, thymocytes and X63-Ag8.653 myeloma cells were incubated with [^125 I] acetyl-LDL at 4 degrees centigrade in six cell tissue culture plates at […]. After 2 hours, the cells were washed five times, then lysed in 0.05% Triton X-100 and the amount of [^125 I] acetyl-LDL bound was determined.

[4] = system: macrophages; conditions: reference 41; cited from earlier work
[5] = system: B16F10 melanoma target cells; assay: Macrophage-mediated cytostasis ([3H]thymidine incorporation) after treating thioglycolate-elicited macrophages; conditions: for % Cytostasis: effector:target 10:1
Method: ^(2) Thioglycolate-elicited macrophages were treated with different
concentrations of the complex for 24 hours, unbound complex was washed
away and B16F10 melanoma cells were added. After 24 hours, the cultures
were pulsed with [3H]thymidine and harvested after 18 hours
(effector:target ratio, 10:1).
Macrophage-mediated Cytostasis: Cytostatic activity was determined using a (^3 H) Thymidine (New England Nuclear Corp) incorporation technique (64). […] After 24 hours, the cells were washed twice with warm DMEM and cultured in DMEM (10% FCS), with 1×10^5 B16F10 melanoma target cells for 24 hours. The cells were then pulsed for 24 hours with 1 uCi of (^3 H) thymidine. Cells were harvested using a MASH cell harvester and assayed with a liquid scintillation counter. The results were expressed as a percent inhibition of (^3 H) thymidine incorporation into the B16F10 target cells (such as % cytostasis). [formula]

Substance	competition with uptake of DiI-labeled acetyl-LDL:MTP-PE complex [1]	Percent Cytotoxicity ([2]; effector to target cell ratio 1:1, same amounts per well)	Percent Cytotoxicity ([2]; effector to target cell ratio 5:1, same amounts per well)	Percent Cytotoxicity ([2]; effector to target cell ratio 10:1, same amounts per well)	Percent Cytotoxicity ([2]; effector to target cell ratio 20:1, same amounts per well)	Percent Cytotoxicity ([2]; effector to target cell ratio 40:1, per well: complex 18.0 ug protein containing 3.6 ug MTP-PE, free MTP-PE 3.6 ug, acetyl-LDL 18.0 ug protein)	binding to myeloma cell line (B-lymphocyte) and thymocytes (T-lymphocytes) [3]	rate of uptake and degradation by macrophages relative to LDL [4]	% Cytostasis ([5]; acetyl-LDL 6.25 μg protein/ml (MTP-PE 0.62 μg/ml in complex, 0.0 alone), 24 hours)	% Cytostasis (Complex + Excess Liposomes) ([5]; acetyl-LDL 6.25 μg protein/ml (MTP-PE 0.62 or 0.0 μg/ml) in presence of excess liposomes 1.2 mg lipid/ml)	% Cytostasis ([5]; acetyl-LDL 12.5 μg protein/ml (MTP-PE 1.3 μg/ml in complex, 0.0 alone), 24 hours)	% Cytostasis (Complex + Excess Liposomes) ([5]; acetyl-LDL 12.5 μg protein/ml (MTP-PE 1.3 or 0.0 μg/ml) in presence of excess liposomes 1.2 mg lipid/ml)	% Cytostasis ([5]; acetyl-LDL 25 μg protein/ml (MTP-PE 2.5 μg/ml in complex, 0.0 alone), 24 hours)	% Cytostasis (Complex + Excess Liposomes) ([5]; acetyl-LDL 25 μg protein/ml (MTP-PE 2.5 or 0.0 μg/ml) in presence of excess liposomes 1.2 mg lipid/ml)	% Cytostasis ([5]; acetyl-LDL 50 μg protein/ml (MTP-PE 5.0 μg/ml in complex, 0.0 alone), 24 hours)	% Cytostasis (Complex + Excess Liposomes) ([5]; acetyl-LDL 50 μg protein/ml (MTP-PE 5.0 or 0.0 μg/ml) in presence of excess liposomes 1.2 mg lipid/ml)	% Cytostasis ([5]; acetyl-LDL 100 μg protein/ml (MTP-PE 9.9 μg/ml in complex, 0.0 for acetyl-LDL alone), macrophages treated 24 hours)	% Cytostasis (Complex + Excess Liposomes) ([5]; acetyl-LDL 100 μg protein/ml (MTP-PE 9.9 or 0.0 μg/ml) in presence of excess liposomes 1.2 mg lipid/ml)
LDL: native unmodified human plasma low density lipoprotein	negligible to moderate competition																	
Acetyl-LDL: human plasma LDL exhaustively acetylated with acetic anhydride at apoprotein B lysine residues; the carrier alone	effective competitive inhibitor	0.5 ± 1%	4.5 ± 4%	4 ± 2%	6 ± 2%	3 ± 3%	only low levels of binding	approximately twenty-fold greater	≤ 5%	≤ 5%	< 5%	≤ 5%	25 ± 12%	≤ 5%	< 5%	≤ 5%	< 5%	≤ 5%
